Results as given in ChEMBL document CHEMBL1909046, “DrugMatrix in vitro pharmacology data”.
pIC50, pKi: −log10 of the molar value.

Columns and labels:
[1] = molecular target: T1, C-X-C chemokine receptor type 1 (Homo sapiens, UniProt P25024); note: in other assays of this panel Not Active means under 50% inhibition at 10 µM
T1 sequence (P25024 whole entry): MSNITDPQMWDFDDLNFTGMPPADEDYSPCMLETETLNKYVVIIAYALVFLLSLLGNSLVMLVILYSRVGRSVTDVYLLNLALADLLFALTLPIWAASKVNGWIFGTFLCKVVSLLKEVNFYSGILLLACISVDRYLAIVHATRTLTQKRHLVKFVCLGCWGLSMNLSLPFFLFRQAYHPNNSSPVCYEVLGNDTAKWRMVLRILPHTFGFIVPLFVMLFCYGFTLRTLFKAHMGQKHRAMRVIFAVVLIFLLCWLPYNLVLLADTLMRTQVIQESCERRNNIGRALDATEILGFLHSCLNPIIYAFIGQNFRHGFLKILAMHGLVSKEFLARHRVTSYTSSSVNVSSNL

[2] = DRUGMATRIX: Phosphodiesterase PDE3 enzyme inhibition (substrate: [3H]cAMP + cAMP); format: tissue-based, Homo sapiens; settings: platelet, Not Active = under 50% inhibition at 10 µM
[3] = molecular target: T2, Glucocorticoid receptor (Homo sapiens, UniProt P04150); settings: hela s3; note: in other assays of this panel Not Active means under 50% inhibition at 10 µM
T2 sequence (P04150 whole entry): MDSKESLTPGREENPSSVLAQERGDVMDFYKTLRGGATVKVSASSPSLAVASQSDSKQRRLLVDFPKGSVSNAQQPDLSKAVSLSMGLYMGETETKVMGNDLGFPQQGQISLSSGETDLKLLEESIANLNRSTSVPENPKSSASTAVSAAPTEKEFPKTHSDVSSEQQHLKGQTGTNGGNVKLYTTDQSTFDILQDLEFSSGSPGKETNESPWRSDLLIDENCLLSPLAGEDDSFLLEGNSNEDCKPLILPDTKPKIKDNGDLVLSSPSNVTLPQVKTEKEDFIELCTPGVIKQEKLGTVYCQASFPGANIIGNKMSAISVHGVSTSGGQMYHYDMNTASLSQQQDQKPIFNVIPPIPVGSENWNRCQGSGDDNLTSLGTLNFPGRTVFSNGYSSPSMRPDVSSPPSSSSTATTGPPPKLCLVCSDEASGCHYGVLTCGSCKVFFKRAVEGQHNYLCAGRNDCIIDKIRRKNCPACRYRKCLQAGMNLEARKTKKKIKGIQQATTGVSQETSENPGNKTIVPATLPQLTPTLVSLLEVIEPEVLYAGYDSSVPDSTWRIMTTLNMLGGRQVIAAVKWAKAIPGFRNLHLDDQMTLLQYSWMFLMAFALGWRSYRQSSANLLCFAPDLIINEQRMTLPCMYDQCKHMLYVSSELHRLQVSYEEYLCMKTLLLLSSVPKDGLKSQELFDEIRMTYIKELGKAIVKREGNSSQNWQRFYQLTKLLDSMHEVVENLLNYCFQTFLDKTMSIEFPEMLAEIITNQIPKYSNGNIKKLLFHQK

[4] = molecular target: T3, Progesterone receptor (Bos taurus, UniProt Q690N0); experiment: DRUGMATRIX: Progesterone radioligand binding (ligand: [3H] R-5020); format: tissue-based, Uterus; settings: Not Active = under 50% inhibition at 10 µM
T3 sequence (Q690N0 whole entry): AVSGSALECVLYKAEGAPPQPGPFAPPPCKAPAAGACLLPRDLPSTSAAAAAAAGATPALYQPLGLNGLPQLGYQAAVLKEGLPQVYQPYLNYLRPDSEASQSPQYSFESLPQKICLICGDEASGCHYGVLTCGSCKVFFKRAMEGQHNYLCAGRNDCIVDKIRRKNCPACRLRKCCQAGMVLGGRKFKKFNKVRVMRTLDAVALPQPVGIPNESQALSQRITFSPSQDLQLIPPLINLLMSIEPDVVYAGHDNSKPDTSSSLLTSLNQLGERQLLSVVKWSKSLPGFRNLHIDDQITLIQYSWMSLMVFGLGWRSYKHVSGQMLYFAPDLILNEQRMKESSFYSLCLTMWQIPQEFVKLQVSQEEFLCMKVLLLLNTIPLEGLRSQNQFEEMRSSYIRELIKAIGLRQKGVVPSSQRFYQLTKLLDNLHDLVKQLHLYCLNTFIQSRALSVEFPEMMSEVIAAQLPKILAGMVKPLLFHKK

[5] = molecular target: T4, Adenosine receptor A1 (Homo sapiens, UniProt P30542); format: cell membranes, CHO, Membrane;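 note: radioligand binding assay at the adenosine A1 receptor, with DPCPX serving as the labelled ligand; in other assays of this panel Not Active means under 50% inhibition at 10 µM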
T4 sequence (P30542 whole entry): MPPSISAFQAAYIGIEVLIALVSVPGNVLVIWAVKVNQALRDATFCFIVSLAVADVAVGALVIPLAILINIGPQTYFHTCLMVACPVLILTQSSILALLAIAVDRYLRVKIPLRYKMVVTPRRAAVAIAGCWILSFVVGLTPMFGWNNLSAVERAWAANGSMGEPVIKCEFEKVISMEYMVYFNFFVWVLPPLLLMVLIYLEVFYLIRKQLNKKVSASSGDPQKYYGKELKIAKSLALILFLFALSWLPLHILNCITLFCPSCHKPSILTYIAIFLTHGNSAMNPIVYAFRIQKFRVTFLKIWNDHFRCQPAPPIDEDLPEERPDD

[6] = DRUGMATRIX: Calcium Channel Type L, Dihydropyridine radioligand binding (ligand: [3H] Nitrendipine); format: cell membranes, Rattus norvegicus, Wistar, Cerebral cortex, Membrane; settings: Not Active = under 50% inhibition at 10 µM

Molecule | IC50 [1] | Ki [1] | IC50 [2] | Ki [2] | IC50 [3] | Ki [3] | IC50 [4] | Ki [4] | IC50 ([5]; cho) | Ki ([5]; cho) | IC50 [6] | Ki [6] | pIC50 ([2]; read-out: IC50) | pIC50 ([4]; read-out: IC50) | pKi ([4]; read-out: Ki) | pIC50 ([5]; read-out: IC50) | pKi ([5]; read-out: Ki)
COPPER(II) OXIDE | Not Active | Not Active | Not Active | Not Active | Not Active | Not Active | Not Active | Not Active | Not Active | Not Active | Not Active | Not Active | – | – | – | – | –
CN(CCOc1ccc(C[C@H](Nc2ccccc2C(=O)c2ccccc2)C(=O)O)cc1)c1ccccn1 | Not Active | – | – | – | Not Active | – | – | – | – | – | Not Active | Not Active | 4.71 | 4.51 | 5.40 | 4.82 | 5.06
COc1cc([C@@H]2c3cc4c(cc3[C@H](O)[C@H]3COC(=O)[C@H]23)OCO4)cc(OC)c1OC [PODOFILOX] | Not Active | – | Not Active | Not Active | Not Active | – | Not Active | – | Not Active | – | Not Active | Not Active | – | – | – | – | –
ClC1=C(Cl)[C@]2(Cl)[C@@H]3[C@@H]4C[C@@H]([C@H]5O[C@@H]45)[C@@H]3[C@@]1(Cl)C2(Cl)Cl [DIELDRIN] | Not Active | – | Not Active | Not Active | Not Active | – | Not Active | – | Not Active | – | Not Active | Not Active | – | – | – | – | –
CCN1CCN(c2cc3c(cc2F)c(=O)c(C(=O)O)cn3C2CC2)CC1 [ENROFLOXACIN] | Not Active | – | Not Active | Not Active | Not Active | – | Not Active | – | Not Active | – | Not Active | Not Active | – | – | – | – | –
OC[C@H]1O[C@@H]2O[C@H]3[C@H](O)[C@@H](O)[C@@H](O[C@H]4[C@H](O)[C@@H](O)[C@@H](O[C@H]5[C@H](O)[C@@H](O)[C@@H](O[C@H]6[C@H](O)[C@@H](O)[C@@H](O[C@H]7[C@H](O)[C@@H](O)[C@@H](O[C@H]8[C@H](O)[C@@H](O)[C@@H](O[C@H]1[C@H](O)[C@H]2O)O[C@@H]8CO)O[C@@H]7CO)O[C@@H]6CO)O[C@@H]5CO)O[C@@H]4CO)O[C@@H]3CO [BETADEX] | Not Active | – | Not Active | Not Active | Not Active | – | Not Active | – | Not Active | – | Not Active | Not Active | – | – | – | – | –
c1ccc(Cn2ccnc2)cc1 | Not Active | – | Not Active | Not Active | Not Active | – | Not Active | – | Not Active | – | Not Active | Not Active | – | – | – | – | –
C=CCN1CC[C@]23c4c5ccc(O)c4O[C@H]2/C(=N/N=C2\CC[C@@]4(O)[C@H]6Cc7ccc(O)c8c7[C@@]4(CCN6CC=C)[C@H]2O8)CC[C@@]3(O)[C@H]1C5 [NALOXONAZINE] | Not Active | – | Not Active | Not Active | Not Active | – | Not Active | – | Not Active | – | Not Active | Not Active | – | – | – | – | –
CCCCCCNC(=O)n1cc(F)c(=O)[nH]c1=O [CARMOFUR] | Not Active | – | Not Active | Not Active | Not Active | – | Not Active | – | Not Active | – | Not Active | Not Active | – | – | – | – | –
OC[C@H]1O[C@@H]2O[C@H]3[C@H](O)[C@@H](O)[C@@H](O[C@H]4[C@H](O)[C@@H](O)[C@@H](O[C@H]5[C@H](O)[C@@H](O)[C@@H](O[C@H]6[C@H](O)[C@@H](O)[C@@H](O[C@H]7[C@H](O)[C@@H](O)[C@@H](O[C@H]1[C@H](O)[C@H]2O)O[C@@H]7CO)O[C@@H]6CO)O[C@@H]5CO)O[C@@H]4CO)O[C@@H]3CO [ALFADEX] | Not Active | – | Not Active | Not Active | Not Active | – | Not Active | – | Not Active | – | Not Active | Not Active | – | – | – | – | –
